According to paper PMC6205224 (Molecular cell, 2018):

What was measured:
Mtb RNAP σ^A holoenzyme = Mtb RNAP σ^A holoenzyme (Mycobacterium tuberculosis, UniProt P9WGY7+P9WGY9); test: Fluorescence-detected RNAP-inhibition assay; format: biochemical
[1] = target: E. coli RNAP σ^70 holoenzyme (Escherichia coli, UniProt P0A8T7+P0A8V2); test: Fluorescence-detected RNAP-inhibition assay; format: biochemical
[2] = target: S. aureus RNAP σ^A holoenzyme (Staphylococcus aureus, UniProt P47768+Q2G0N5); test: Fluorescence-detected RNAP-inhibition assay; format: biochemical; conditions: Fig. S5
E. coli D21f2tolC [3] = format: cell-based, Escherichia coli; conditions: for cross-resistance of E. coli Lpm-resistant mutants to the compound: chromosomal Lpm-resistant mutants of E. coli D21f2tolC, Fig. 2D; for MICwild-type: wild-type E. coli D21f2tolC, LB broth, 16 h at 37°C, growth inhibited by ≥90%
RNAP clamp = conditions: interactions with SW1 and opposite face of SW2; ref Chakraborty et al., 2012; cited from earlier work
[4] = target: E. coli RNAP σ^70 holoenzyme (Escherichia coli, UniProt P0A8T7+P0A8V2, D284F/E106F); test: Single-molecule FRET of RNAP clamp conformation; format: biochemical; conditions: 20 μM Lpm; Fig. 4E-F
human RNAP I/II/III = test: Radiochemical RNAP-inhibition assay with HeLa nuclear extract; format: biochemical; conditions: Fig. S4C
E. coli strain D21f2tolC = test: Colony formation on LB-agar plates containing Lpm; format: cell-based, Escherichia coli; conditions: 200 μg/ml ampicillin, 1 mM IPTG, 24-48 h at 37°C
[5] = in vivo; cited from earlier work
E. coli D21f2tolC [6] = test: Checkerboard interaction assay; format: cell-based, Escherichia coli; conditions: combination of Lpm and Rif; checkerboard format; Fig. 2F
[7] = target: T. thermophilus RNAP σ^A holoenzyme (Thermus thermophilus, UniProt Q8RQE8+Q8RQE9); test: Fluorescence-detected RNAP-inhibition assay; format: biochemical

Molecule	cross-resistance of E. coli Lpm-resistant mutants to the compound (E. coli D21f2tolC [3])	MICwild-type (E. coli D21f2tolC [3])	other results
4"-O-benzyl-Lpm [a1]	–	–	potency in inhibiting Mtb RNAP relative to Lpm (Mtb RNAP σ^A holoenzyme): within approximately an order of magnitude of that of Lpm; potency in inhibiting Escherichia coli RNAP relative to Lpm ([1]; Fig. S5): equal to that of Lpm; potency in inhibiting S. aureus RNAP relative to Lpm [2]: within approximately an order of magnitude of that of Lpm
ONC(=Nc1ccccc1)c1cccc(C(F)(F)F)c1 [CBR, CBR703]	Absence of significant cross-resistance	6.25 µg/mL	–
C/C=C/C/C=C(\C)C(O)CC/C(C)=C/C=C(\C)C(=O)c1c(O)cc([C@H](C)CC/C=C/NC(=O)OC)oc1=O (some centres unmarked) [Cor, corallopyronin]	–	–	effect on RNAP clamp conformation (RNAP clamp): trap a closed-clamp state
CCc1c(Cl)c(O)c(Cl)c(O)c1C(=O)O[C@H]1[C@H](O)[C@H](OC)[C@H](OC/C2=C\C=C\C[C@H](O)/C(C)=C/[C@H](CC)[C@@H](O[C@@H]3OC(C)(C)[C@@H](OC(=O)C(C)C)[C@H](O)[C@@H]3O)/C(C)=C/C(C)=C/C[C@@H]([C@@H](C)O)OC2=O)O[C@@H]1C [Lpm, lipiarmycin A3]	–	1.56 µg/mL	effect on RNAP clamp conformation in solution [4]: traps the open-clamp state; ability to inhibit human RNAP I, II, and III (human RNAP I/II/III): not human RNAP I, II, and III; minimal concentration that prevents colony formation by wild-type transformants (E. coli strain D21f2tolC): 5 µg/mL; cross-resistance of E. coli Rif-, GE/PUM-, Sal-, CBR-, and Stl-resistant mutants to Lpm (E. coli D21f2tolC [3]; E. coli D21f2tolC derivatives, Fig. 2E): Absence of significant cross-resistance; systemic bioavailability [5]: no systemic bioavailability; IC50 [1]: 8 µM; antibacterial interaction of Lpm and Rif when co-administered (E. coli D21f2tolC [6]): additive antibacterial activity; IC50 [7]: 200 µM
NC(=O)CC[C@@H](C(=O)NC[C@H]1O[C@@H](c2c[nH]c(=O)[nH]c2=O)[C@H](O)[C@@H]1O)N(O)C(=O)CN=C(N)N [PUM, pseudoridimycin]	Absence of significant cross-resistance	400 µg/mL	–
CO[C@H]1/C=C/O[C@@]2(C)Oc3c(C)c(O)c4c(O)c(c(/C=N/N5CCN(C)CC5)c(O)c4c3C2=O)NC(=O)/C(C)=C\C=C\[C@H](C)[C@H](O)[C@@H](C)[C@@H](O)[C@@H](C)[C@H](OC(C)=O)[C@@H]1C [Rif, rifampin]	Absence of significant cross-resistance	0.20 µg/mL	–
C/C(=C\Cc1ccccc1)CCC(=O)C[C@H]1C[C@H](O)C/C(C)=C/C/C=C/C/C(CC(=O)O)=C\C(=O)O1 [Rip, ripostatin]	–	–	effect on RNAP clamp conformation (RNAP clamp): trap a closed-clamp state
CNC(=O)[C@@H](C)[C@H]1C(=O)/C(=C(O)/C=C/C(C)=C/[C@@H](C)[C@H]2O[C@@]3(C)O[C@H](C=C[C@@]34CO4)[C@@H]2C)C(=O)N1[C@@H]1CC[C@H](O)[C@H](C)O1 [Stl, streptolydigin]	Absence of significant cross-resistance	3.13 µg/mL	–
GE23077	Absence of significant cross-resistance	500 µg/mL	–
myxopyronin	Absence of significant cross-resistance	0.20 µg/mL	effect on RNAP clamp conformation (RNAP clamp): trap a closed-clamp state
salinamide	Absence of significant cross-resistance	0.049 µg/mL	–
